Patent publication US20120178738A1, “DIBENZO [B,F] [1,4]OXAZAPINE COMPOUNDS” (ARYX THERAPEUTICS, INC., priority 2007, published 2012)

How the values were obtained:
[1] = test system: locomotor activity in rats; assay: Spontaneous locomotor activity (open field); format: in vivo; conditions: clozapine comparator, dose not given
Method: One of the common side effects of many antipsychotic drugs is sedation. It has been shown that agents that have sedative actions in man have the same effect in animals. The purpose of these studies was to evaluate the effect of test compounds on the locomotor activity in rats, which is used to assess the sedative properties of antipsychotic compounds.
The animals (male Sprague Dawley rats, about 300-450 g; Charles River) were assessed for ambulation for 30 minutes before and for 30 min after vehicle or test compounds. […] Locomotor activity is quantified by the number of photobeams crossed by the animal over several 3×10 min intervals.

catalepsy in mice = assay: Catalepsy mouse model; format: in vivo; conditions: highest dose 30 mg/kg
Method: A catalepsy mouse model was used to investigate a potential side effect of antipsychotic agents.
The catalepsy methodology used herein has been adapted from Tada, M. et al. ((2004). Psychopharmacol., 176, 94-100) as well as Wang et al. ((2000). J. Neurosci., 20, 8305-8314).
The animals (Swiss Webster, female, about 20 g; Charles River) were administered compounds of the invention (1 μg/kg-30 mg/kg ip). Twenty seven minutes after test compound injection, the mice's forepaws were placed on a horizontal steel bar (diameter 0.2 cm), elevated 3-5 cm above the tabletop and the time taken for the animals to remove both paws was recorded for up to 2 min.

CN1CCN(C2=Nc3cc(Cl)ccc3Nc3ccccc32)CC1 [clozapine, reference compound]
locomotor activity in rat (open field) [1]: trend toward sedation | catalepsy (catalepsy in mice): induced catalepsy
